ChEMBL document CHEMBL1201862, “PubChem BioAssay data set” (2004)
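How tested: cells in 96-well plates exposed to compound for 48 hours at five concentrations. GI50 is the concentration that inhibits growth by half.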 Calls of active or inactive are those of the source. No stated cut-off is given here; in the data, active = GI50 up to about 1.1 µM and inactive = higher.

Assays:
Assay in all cases: DTP human tumour cell line panel, 48 h
A549 = tested on: A549
CAKI-1 = tested on: CAKI-1
HCC 2998 = tested on: HCC 2998
HOP-92 = tested on: HOP-92
IGROV-1 = tested on: IGROV-1
KM12 = tested on: KM12
Malme-3M = tested on: Malme-3M
OVCAR-4 = tested on: OVCAR-4
OVCAR-8 = tested on: OVCAR-8
RPMI-8226 = tested on: RPMI-8226
SF-295 = tested on: SF-295
SK-MEL-2 = tested on: SK-MEL-2
SNB-19 = tested on: SNB-19
TK-10 = tested on: TK-10
U-251 = tested on: U-251
UACC-257 = tested on: UACC-257
A498 = tested on: A498

Measured: GI50

O=C(c1ccccc1)C1N=NN(Cc2ccccc2[N+](=O)[O-])C1C(=O)c1ccccc1 (stereo unspecified)
inactive: A549 37.8 µM | CAKI-1 > 100 µM | HCC 2998 96.8 µM | HOP-92 > 100 µM | IGROV-1 > 100 µM | KM12 > 100 µM | Malme-3M > 100 µM | OVCAR-4 > 100 µM | OVCAR-8 > 100 µM | RPMI-8226 > 100 µM | SF-295 > 100 µM | SK-MEL-2 > 100 µM | SNB-19 > 100 µM | TK-10 > 100 µM | U-251 > 100 µM | UACC-257 > 100 µM

O=C1C2C(C(=O)N1c1ccccc1)C1([N+](=O)[O-])C=C3c4ccccc4N(C(=O)c4ccccc4)C32C2C(=O)N(c3ccccc3)C(=O)C21 (stereo unspecified)
inactive: A498 > 100 µM | A549 > 100 µM | CAKI-1 > 100 µM | HCC 2998 > 100 µM | HOP-92 > 100 µM | IGROV-1 > 100 µM | KM12 > 100 µM | Malme-3M > 100 µM | OVCAR-8 > 100 µM | SF-295 > 100 µM | SK-MEL-2 > 100 µM | SNB-19 > 100 µM | TK-10 > 100 µM | U-251 > 100 µM | UACC-257 > 100 µM

CN1C(=O)C(=CN(C)c2ccccc2)C(=O)N(C)C1=O
inactive: A498 95.7 µM | A549 > 100 µM | CAKI-1 30.1 µM | HCC 2998 > 100 µM | IGROV-1 56.5 µM | KM12 > 100 µM | Malme-3M 36.9 µM | OVCAR-4 > 100 µM | OVCAR-8 > 100 µM | RPMI-8226 > 100 µM | SF-295 > 100 µM | SK-MEL-2 > 100 µM | SNB-19 > 100 µM | TK-10 > 100 µM | U-251 > 100 µM | UACC-257 > 100 µM

CC1CCCC(C(O)CC2CC(=O)N(c3ccccc3)C(=O)C2)C1=O (stereo unspecified)
inactive: A498 > 100 µM | A549 > 100 µM | CAKI-1 > 100 µM | HCC 2998 > 100 µM | HOP-92 > 100 µM | IGROV-1 > 100 µM | KM12 > 100 µM | Malme-3M > 100 µM | OVCAR-4 > 100 µM | OVCAR-8 > 100 µM | RPMI-8226 > 100 µM | SF-295 > 100 µM | SNB-19 > 100 µM | TK-10 > 100 µM | U-251 > 100 µM | UACC-257 > 100 µM

C\C=C/C=C/C=C/C(=O)O
inactive: A498 > 100 µM | A549 > 100 µM | CAKI-1 > 100 µM | HCC 2998 > 100 µM | IGROV-1 > 100 µM | KM12 > 100 µM | Malme-3M > 100 µM | OVCAR-4 > 100 µM | OVCAR-8 > 100 µM | RPMI-8226 > 100 µM | SF-295 > 100 µM | SK-MEL-2 > 100 µM | SNB-19 > 100 µM | U-251 > 100 µM | UACC-257 > 100 µM

N#CC1=C(Cl)NC(Cl)=C(C#N)C1c1ccc(Cl)cc1
inactive: A498 32.4 µM | A549 22.1 µM | CAKI-1 17.9 µM | HCC 2998 19.1 µM | HOP-92 15.2 µM | IGROV-1 18.2 µM | KM12 17.6 µM | Malme-3M 21.3 µM | OVCAR-8 16.2 µM | RPMI-8226 17.5 µM | SF-295 27.2 µM | SK-MEL-2 13.9 µM | SNB-19 16.6 µM | TK-10 18 µM | U-251 16.3 µM | UACC-257 18.3 µM

CC1=C(CC2C(=O)N(c3ccccc3)S(=O)(=O)NC2C)C(=O)N(c2ccccc2)S(=O)(=O)N1C (stereo unspecified)
inactive: A549 > 100 µM | CAKI-1 > 100 µM | HCC 2998 > 100 µM | HOP-92 > 100 µM | IGROV-1 > 100 µM | KM12 > 100 µM | Malme-3M > 100 µM | OVCAR-4 > 100 µM | OVCAR-8 > 100 µM | RPMI-8226 > 100 µM | SF-295 > 100 µM | SK-MEL-2 > 100 µM | SNB-19 > 100 µM | TK-10 > 100 µM | U-251 > 10 µM

CC(=O)CC(=O)N(CCN(C(=O)CC(C)=O)c1ccccc1)c1ccccc1
inactive: A498 > 100 µM | A549 > 100 µM | CAKI-1 > 100 µM | HCC 2998 > 100 µM | HOP-92 > 100 µM | IGROV-1 > 100 µM | KM12 > 100 µM | Malme-3M > 100 µM | OVCAR-4 > 100 µM | OVCAR-8 > 100 µM | RPMI-8226 72.9 µM | SF-295 > 100 µM | SK-MEL-2 > 100 µM | SNB-19 > 100 µM | TK-10 > 100 µM | U-251 > 100 µM | UACC-257 32.2 µM
